Reference: patent US20050215490A1, “Polyene polyketides and methods of treating bacterial infections” (Ecopia BioSciences, Inc., priority 2003, published 2005)
Converted amounts (≈) assume the structure as drawn. Like-named read-outs stand apart in the source and are kept apart here.

Legend:
[1] = tested on: Staphylococcus aureus NRRL B-313 (ATCC™ 6538P); assay: MIC at different pH; type: cell-based; settings: S. aureus ATCC 6538P
Description: Antibacterial activitiy of Compounds.3, 4, 5, 6 and 7 are accomplished using the same method in a panel of bacterial strains and Vancomycin as positive control.
Antibacterial efficacy of Compounds 1, 2, 3, 4, 5 and 6 on bacterial strain Staphylococcus aureus NRRL B-313 (ATCC™ 6538P) was determined at different pH concentrations.

[2] = tested on: S. aureus MRSA-hVISA (ATCC™ 700699); assay: Minimal bactericidal concentration (NCCLS M26-A); type: cell-based, Staphylococcus aureus; settings: for MBC: Staphylococcus aureus, more than 99.9% growth inhibition
Description: (§1) Minimal bactericidal concentration (MBC) was also determined for Compounds 1 and 2. […] MBC were measured against three Staphylococcus strains, namely sp. aureus MSSA (ATCC™ 6538P), sp. aureus MRSA-hVISA (ATCC™ 700699) and sp. epidermidis (ATCC™ 12228). The results, shown in Table 6 below, were consistent with bactericidal activity (MBC/MIC ratio were of 1 to 2).
(§2) MBC determination was performed according to the NCCLS guideline M26-A: Methods for Determining Bactericidal Activity of Antimicrobial Agents (NCCLS document […], ISBN 1-56238-394-9; NCCLS, 940 West Valley Road, Suite 1400, Wayne, Pa. 19087-1898 USA), the content of which is incorporated herein by reference.
(§3) Microdilutions broth assays were performed using the same procedure as for MIC determination, Example 6. 24 hours post-incubation, cells were collected in wells corresponding to the MIC, 2×MIC and 4×MIC. Collected cells were plated on agar media. MBC were determined as the drug concentration at which more than 99.9% growth inhibition was observed. As a reference for 100% growth, cells grown in media only were also plated.

[3] = tested on: S. aureus MSSA (ATCC™ 6538P); assay: Minimal bactericidal concentration (NCCLS M26-A); type: cell-based, Staphylococcus aureus; settings: for MBC: Staphylococcus aureus, more than 99.9% growth inhibition
Description: as §1, §2, §3

[4] = tested on: S. epidermidis (ATCC™ 12228); assay: Minimal bactericidal concentration (NCCLS M26-A); type: cell-based, Staphylococcus epidermidis; settings: for MBC: Staphylococcus epidermidis, more than 99.9% growth inhibition
Description: as §1, §2, §3

[5] = in vivo; settings: female, CD-1, mouse
Description: (§4) A. Toxicity: Acute toxicities were determined using CD-1 female mice (supplied by Charles River Laboratories, Wilmington, Mass.) having a bodyweight of 18-25 g, and about 6 weeks of age. Compounds 1 and 2 at doses ranging from 1 to 70 mg/kg (formulated in 20% propylene glycol/water for a total volume of 10 μL/g of weight) were administered intraperitoneal (i.p.) and intravenous (i.v.) to groups of 5 mice (5 mice per concentration, per mode of administration). Two groups of 3 mice were injected with vehicle only. Mice were observed immediately after injection, within 4 hours and once a day for the subsequent days. Acute toxicity studies of Compound 1 in mice indicated no observable effect and high dose tolerability: 70 mg/kg intraperitoneal and 50 mg/kg intravenous (an MTD of 250 mg/kg was also determined by oral administration). […] In vitro Haemolytic activity results are also shown in Table 7, along with the in vivo toxicity and efficacy of Compound 1.

[6] = in vitro; type: cell-based; settings: sheep; concentration to achieve 50% hemolysis of SRBC; read-out: In vitro Hemolytic activity (EC50)
Description: as §4

[7] = tested on: Staphylococcus aureus (Smith strain, ATCC™ 13709); assay: In vivo efficacy, acute lethal S. aureus infection in mice; settings: ICR mice; i.p. one hour post infection; lowest dose tested; 100% protection
Description: B. Efficacy: In vivo efficacy studies were performed on ICR mice (supplied by Charles River Laboratories, Wilmington, Mass.) having a bodyweight of 20±2 g. Mice (38) were inoculated i.p. with an LD90-100 dose (1×10^6 CFU/mouse) of Staphylococcus aureus (Smith strain, ATCC™ 13709) suspended in 0.5 mL of BHI containing 5% mucin. Compound 1 at doses 20, 30, 40, 50, 60 and 70 mg/kg (formulated in 20% propylene glycol/water for a total volume of 10 μL/g of weigth) was administered i.p. one hour post infection (5 mice for each concentration). Another group of 5 mice was treated i.v. with a 10 mg/kg dose of Vancomycin. A last group of 3 mice was administered vehicle only. Mortality was recorded for 7 days.

[8] = tested on: SRBC; assay: in vitro; type: cell-based; settings: at a concentration of 128 μg/ml
Description: as §4

Structure (SMILES) | MIC ([1]; pH 5.0, read-out: MIC) [µg/mL] | MIC ([1]; pH 6.0, read-out: MIC) [µg/mL] | MIC ([1]; pH 7.0, read-out: MIC) [µg/mL] | MBC/MIC [2] | MBC [2] [µg/mL] | MBC/MIC [3] | MBC [3] [µg/mL] | MBC/MIC [4] | MBC [4] [µg/mL] | MTD ([5]; ip) [mg/kg] | MTD ([5]; po) [mg/kg] | EC50 [6] [µg/mL] | In vivo efficacy: S. aureus (Smith), protective dose [7] | Haemolytic activity [8]
CC(=CC=CC=CC=CC=CC(C)C(OC1OC(C(=O)O)C(O)C(O)C1O)C(C)=CC(C)CCCC=CC(C)CC=CCCCN(C)C(=N)N)C(=O)NC1=C(O)CCC1=O (centres unmarked) [Compound 1, 3,4,5-trihydroxy-6-[1-[11-(2-hydroxy-5-oxocyclopent-1-enylcarbamoyl)-1-methyldodeca-2,4,6,8,10-pentaenyl]-2,4,10-trimethyl-16-(N-methyl-guanidino)-hexadeca-2,8,12-trienyloxy]-tetrahydropyran-2-carboxylic acid] | 0.125 (≈ 0.149 µM) | 0.25 (≈ 0.299 µM) | 1 (≈ 1.19 µM) | 1 | 4 (≈ 4.78 µM) | 2 | 4 (≈ 4.78 µM) | 1 | 4 (≈ 4.78 µM) | 70 | 250 | > 128 | ≦20 mg/kg | –
C\C(=C/C=C/C=C/C=C/C=C/C(C)C(OC1OC(C(=O)O)C(O)C(O)C1O)/C(C)=C/C(C)CCC/C=C/C(C)C/C=C/CCCNC(=N)N)C(=O)NC1=C(O)CCC1=O (centres unmarked) [Compound 2, 6-{16-guanidino-1-[11-(2-hydroxy-5-oxocyclopent-1-enylcarbamoyl)-1-methyldodeca-2,4,6,8,10-pentaenyl]-2,4,10-trimethylhexadeca-2,8,12-trienyloxy}-3,4,5-trihydroxy-tetrahydro-pyran-2-carboxylic acid] | 0.0625 (≈ 0.0759 µM) | 0.125 (≈ 0.152 µM) | 1 (≈ 1.22 µM) | 2 | 2 (≈ 2.43 µM) | 2 | 2 (≈ 2.43 µM) | 1 | 1 (≈ 1.22 µM) | – | – | – | – | No Haemolytic activity
